{
  "source": "patent US9181290B2",
  "about": "“Inhibition of biofilm formation by 1,2,3,4,6-penta-O-galloyl-D-glucopyranose” (CHANG GUNG UNIVERSITY, priority 2011, dated 2015)",
  "key": {"S. aureus SA113 [1]": {"system": "S. aureus SA113", "experiment": "Adherence assay: β-PGG added at different times after inoculation, biofilm by crystal violet at 6 hours", "assay_type": "cell-based, Staphylococcus aureus", "settings": "for reduction of biofilm formation: read at 6 hours", "protocol": "At 6 hours after seeding, the wells were subjected to crystal violet staining to determine the amounts of biofilm formed on the inner surfaces of the wells of polystyrene microtiter plates or on the polycarbonate discs."}, "S. aureus SA113 [2]": {"system": "S. aureus SA113", "experiment": "Fluorescence microscopy of adhered cells after Syto 9 staining", "assay_type": "cell-based, Staphylococcus aureus", "settings": "6.25 μM and 12.5 μM, 60 min", "protocol": "Meanwhile, cells adhering to the polystyrene or polycarbonate surfaces were washed off with PBS at 60 min after seeding and stained with Syto 9 (Invitrogen), a green florescence dye that stains nucleic acids, followed by observation under a fluorescence microscope.\nThe cells adhering to the polystyrene surface and polycarbonate surface after treatment with 0 μM, 6.25 μM and 12.5 μM β-PGG for 60 min were also examined under a fluorescent microscope after Syto 9 staining."}, "293T cells": {"system": "293T cells", "experiment": "Cell viability assay (MTT)", "assay_type": "cell-based, human", "protocol": "(§1) Human HepG2 cells (ATCC HB-8065) and 293T cells (ATCC CRL-11268) were cultured in Dulbecco's modified Eagle's medium (DMEM) supplemented with 10% (v/v) fetal calf serum. Human MRC-5 cells (ATCC CCL171) and HEp-2 cells (ATCC CCL-23) were cultured in Eagle's minimum essential medium (MEM) supplemented with 10% fetal calf serum. These four human cell lines were seeded into 24-well polystyrene tissue culture plates at a cell density of 1×10^5 cells/500 μL medium per well, respectively. After incubation at 37° C. for 24 hrs, β-PGG was added into each well in various amounts (0, 6.25, 12.5, 25 and 50 μM). After 24 hr treatment of β-PGG, toxicity of β-PGG to these human cell lines was determined using the 3-(4,5-dimethylthiazol-2-yl)-2,5-diphenyltetrazolium bromide (MTT) method (Xiangshu Piao et al. (2008), supra). Additionally, toxicity of β-PGG to the 293T cells was also determined in medium containing 0% and 2% fetal calf serum. Cells treated with DMSO were used as a negative control."}, "HepG2 cells": {"system": "HepG2 cells", "experiment": "Cell viability assay (MTT)", "assay_type": "cell-based, human", "settings": "concentrations below 50 μM, 24 hr treatment, 10% fetal calf serum", "protocol": "as §1"}, "MRC-5 cells": {"system": "MRC-5 cells", "experiment": "Cell viability assay (MTT)", "assay_type": "cell-based, human", "settings": "concentrations below 50 μM, 24 hr treatment, 10% fetal calf serum", "protocol": "as §1"}, "HEp-2 cells": {"system": "HEp-2 cells", "experiment": "Cell viability assay (MTT)", "assay_type": "cell-based, human", "settings": "concentrations below 50 μM, 24 hr treatment, 10% fetal calf serum", "protocol": "as §1"}, "[3]": {"system": "icaA gene transcription in S. aureus SA113", "experiment": "icaA expression by real-time RT-PCR", "assay_type": "cell-based, Staphylococcus aureus", "settings": "concentrations below 50 μM, 5 hr treatment, normalized to gyrB", "protocol": "Bacterial cells were treated with 0.5 mg/mL lysostaphin (Sigma-Aldrich) at 37° C. for 15 min, and total bacterial mRNA was isolated and purified using a TRIzol reagent (Invitrogen) according to the manufacturer's instructions, followed by quantification of icaA expression by real-time RT-PCR (LightCycler, Roche, Mannheim, Germany). The icaA mRNA was reverse-transcribed and amplified using primers A1 (5′-[…]-3′) (SEQ ID NO:1) and B1 (5′-[…]-3′) (SEQ ID NO:2) that were designed based on the sequence of the icaA gene (Gene ID:3921484). […] Amplified PCR products were detected using a Light Cycler-RNA Amplification Kit Cyber Green 1 (Roche, Mannheim, Germany), starting with a cycle of denaturation at 95° C. for 5 min, then running for 45 cycles as follows: at 95° C. for 30 sec, 62° C. for 30 sec and 72° C. for 20 sec. To monitor the specificity of RT-PCR reaction, the PCR products were analyzed by melting curve analysis.\nTo determine whether the β-PGG inhibition effected at the transcriptional level, total mRNAs were isolated from S. aureus SA113 cells after 5 hr treatment with β-PGG at various concentration (0, 3.13, 12.5 and 50 μM), and transcription of the icaA gene was analyzed by LightCycler quantitative RT-PCR."}},
  "data": [
    {"smiles": "O=C(OC[C@H]1O[C@@H](OC(=O)c2cc(O)c(O)c(O)c2)[C@H](OC(=O)c2cc(O)c(O)c(O)c2)[C@@H](OC(=O)c2cc(O)c(O)c(O)c2)[C@@H]1OC(=O)c1cc(O)c(O)c(O)c1)c1cc(O)c(O)c(O)c1", "note": "[β-PGG, 1,2,3,4,6-penta-O-galloyl-β-D-glucopyranose]", "values": [
      {"measurement": "reduction of biofilm formation", "setting": "S. aureus SA113 [1]; 6.25 μM added at 0.5 hr after inoculation, DMSO = 100%", "result": 62, "unit": "%"},
      {"measurement": "reduction of biofilm formation", "setting": "S. aureus SA113 [1]; 6.25 μM added at 1 hr after inoculation, DMSO = 100%", "result": 19, "unit": "%"},
      {"measurement": "reduction of biofilm formation", "setting": "S. aureus SA113 [1]; 12.5 μM added at 0.5 and 1 hr after inoculation", "result": "more than 90%"},
      {"measurement": "inhibition of biofilm formation", "setting": "S. aureus SA113 [1]; added at 1.5 and 2 hr after inoculation", "result": "not inhibited"},
      {"measurement": "time of addition after seeding at which β-PGG is effective", "setting": "S. aureus SA113 [1]; added into the culture medium after seeding", "result": "≤ 1", "unit": "h"},
      {"measurement": "cells attached to polystyrene and polycarbonate surfaces (Syto 9)", "setting": "S. aureus SA113 [2]", "result": "significantly reduced the number of cells attached"},
      {"measurement": "cell viability (MTT)", "setting": "293T cells; concentrations below 50 μM, 24 hr treatment, 10% fetal calf serum", "result": "did not affect the viability"},
      {"measurement": "influence of serum concentration on toxicity", "setting": "293T cells; medium with 2% or 0% fetal calf serum", "result": "no influence upon the toxicity"},
      {"measurement": "cell viability (MTT)", "setting": "HepG2 cells", "result": "did not affect the viability"},
      {"measurement": "cell viability (MTT)", "setting": "MRC-5 cells", "result": "did not affect the viability"},
      {"measurement": "cell viability (MTT)", "setting": "HEp-2 cells", "result": "did not affect the viability"},
      {"measurement": "transcription of icaA", "setting": "[3]", "result": "did not influence the transcription of icaA"}
    ]}
  ]
}
